ChEMBL document CHEMBL5500393, “Discovery and Optimization of Novel SaFabI Inhibitors as Specific Therapeutic Agents for MRSA Infection” (J Med Chem, 2024)
Values after ≈ are worked out from the molar mass of the structure shown. Active and inactive are the calls of the source. No cut-off for these calls is given here.

Key:
[1] = Cytotoxicity against HEK293 cells assessed as survival rate at 800 uM measured after 48 hrs by CCK-8 method relative to control; format: toxicity, cell-based; conditions: human, read-out: Survival
Cell membrane [2] = test: Induction of cell membrane permeability in methicillin-resistant Staphylococcus aureus ATCC33591 assessed as increase in fluorescence measured after 30 mins by Annexin V-FITC staining based analysis; format: cell membranes
[3] = Metabolic stability in mouse liver microsomes assessed as half life at 1 uM measured upto 120 mins in presence of NADPH by LC-MS analysis; format: ADME, Microsome
[4] = Hemolytic activity in sheep erythrocytes assessed as hemolysis at 128 ug/ml incubated for 1 hr by microplate reader based analysis relative to control; format: toxicity, cell-based, Ovis aries, Erythrocyte; conditions: at 128 µg/mL, read-out: Activity
[5] = Acute toxicity in female BALB/c mouse assessed as animal death at 800 mg/kg, po measured after 14 days; format: organism-based; conditions: in vivo, 336 h, time 14 day
Pseudomonas aeruginosa = test: Antimicrobial activity against Pseudomonas aeruginosa PAO1 measured after 24 hrs by CLSI protocol based microdilution method; format: functional
[6] = Acute toxicity in female BALB/c mouse assessed as effect on kidney at 800 mg/kg, po measured after 14 days by H and E staining based analysis; format: organism-based; conditions: in vivo, 336 h, time 14 day
Cell membrane [7] = test: Induction of cell membrane permeability in methicillin-resistant Staphylococcus aureus ATCC33591 assessed as fold increase in fluorescence intensity at 0.5 times MIC measured after 30 mins by Annexin V-FITC staining based analysis; format: cell membranes
Staphylococcus aureus [8] = test: Bactericidal activity against […] Staphylococcus aureus ATCC33591 assessed as log reduction in bacterial count at 2 times MIC measured within 8 to 12 hrs by time-kill assay; format: functional; conditions: time 8-12 hrs
[9] = Aqueous solubility of the compound measured after 24 hrs by HPLC analysis; format: physicochemical
Staphylococcus aureus [10] = test: Antimicrobial activity against Staphylococcus aureus measured after 24 hrs by CLSI protocol based microdilution method; format: functional
[11] = Acute toxicity in female BALB/c mouse assessed as effect on TP level in serum at 800 mg/kg, po measured after 14 days; format: organism-based; conditions: in vivo, 336 h, time 14 day
[12] = Acute toxicity in female BALB/c mouse assessed as effect on spleen at 800 mg/kg, po measured after 14 days by H and E staining based analysis; format: organism-based; conditions: in vivo, 336 h, time 14 day
[13] = Acute toxicity in female BALB/c mouse assessed as effect on AST level in serum at 800 mg/kg, po measured after 14 days; format: organism-based; conditions: in vivo, 336 h, time 14 day
Staphylococcus aureus [14] = test: Antimicrobial activity against methicillin-susceptible Staphylococcus aureus ATCC29213 measured after 24 hrs by CLSI protocol based microdilution method; format: functional
[15] = Oral bioavailability in female Sprague-Dawley rat at 20 mg/kg measured upto 24 hrs by LC-MS analysis; format: ADME, organism-based; conditions: in vivo
Staphylococcus aureus [16] = test: Antimicrobial activity against Staphylococcus aureus RN4220 harbouring pCM-sfgfp::fabi (promoter fabi) measured after 24 hrs by CLSI protocol based microdilution method; format: functional
[17] = Clearance in female Sprague-Dawley rat at 20 mg/kg, po measured upto 24 hrs by LC-MS analysis; format: ADME, organism-based; conditions: in vivo
[18] = Acute toxicity in female BALB/c mouse assessed as effect on heart at 800 mg/kg, po measured after 14 days by H and E staining based analysis; format: organism-based; conditions: in vivo, 336 h, time 14 day
Cell membrane [19] = test: Induction of cell membrane permeability in methicillin-resistant Staphylococcus aureus ATCC33591 assessed as fold increase in fluorescence intensity at 1 times MIC measured after 30 mins by 7-AAD staining based analysis; format: cell membranes
[20] = Acute toxicity in female BALB/c mouse assessed as effect on CREA level in serum at 800 mg/kg, po measured after 14 days; format: organism-based; conditions: in vivo, 336 h, time 14 day
[21] = Metabolic stability in mouse liver microsomes assessed as intrinsic clearance at 1 uM measured upto 120 mins in presence of NADPH by LC-MS analysis; format: ADME, Microsome; conditions: read-out: CLH
Cell membrane [22] = test: Induction of cell membrane damage in methicillin-resistant Staphylococcus aureus ATCC33591 assessed as outflow of cytoplasmic content at 1 times MIC measured after 30 mins by TEM analysis; format: cell membranes
[23] = Metabolic stability in human liver microsomes assessed as half life at 1 uM measured upto 120 mins in presence of NADPH by LC-MS analysis; format: ADME, Microsome
Cell membrane [24] = test: Induction of cell membrane permeability in methicillin-resistant Staphylococcus aureus ATCC33591 assessed as fold increase in fluorescence intensity at 0.25 times MIC measured after 30 mins by Annexin V-FITC staining based analysis; format: cell membranes
[25] = Tmax in female Sprague-Dawley rat at 20 mg/kg, po measured upto 24 hrs by LC-MS analysis; format: ADME, organism-based; conditions: in vivo
Escherichia coli = test: Antimicrobial activity against Escherichia coli ATCC25922 measured after 24 hrs by CLSI protocol based microdilution method; format: functional
Cell membrane [26] = test: Induction of cell membrane permeability in methicillin-resistant Staphylococcus aureus ATCC33591 assessed as fold increase in fluorescence intensity at 0.5 times MIC measured after 30 mins by 7-AAD staining based analysis; format: cell membranes
Staphylococcus aureus [27] = test: Antimicrobial activity against […] Staphylococcus aureus ATCC33591 assessed as reduction in lipid content at 8 times MIC measured after 4 hrs by microplate reader based analysis; format: functional, organism-based
[28] = Acute toxicity in female BALB/c mouse assessed as effect on lung at 800 mg/kg, po measured after 14 days by H and E staining based analysis; format: organism-based; conditions: in vivo, 336 h, time 14 day
[29] = Drug concentration in BALB/c mouse plasma at 400 mg/kg, po measured after 1 hr by LC-MS analysis; format: ADME, organism-based
[30] = Cmax in female Sprague-Dawley rat at 5 mg/kg, iv measured upto 24 hrs by LC-MS analysis; format: ADME, organism-based; conditions: in vivo
[31] = Drug concentration in BALB/c mouse plasma at 1200 mg/kg, po measured after 1 hr by LC-MS analysis; format: ADME, organism-based
Enterococcus faecalis = test: Antimicrobial activity against Enterococcus faecalis ATCC29212 measured after 24 hrs by CLSI protocol based microdilution method; format: functional
[32] = Acute toxicity in female BALB/c mouse assessed as effect on ALT level in serum at 800 mg/kg, po measured after 14 days; format: organism-based; conditions: in vivo, 336 h, time 14 day
[33] = target: T1, Enoyl-[acyl-carrier-protein] reductase [NADPH] FabI (Staphylococcus aureus, UniProt Q6GI75); test: Inhibition of N-terminal his 6 tagged Staphylococcus aureus Fabi (1 to […] residues) expressed in Escherichia coli BL21 incubated for 30 mins in presence of NADPH by fluorescence based microplate reader analysis
T1 sequence (Q6GI75 whole entry): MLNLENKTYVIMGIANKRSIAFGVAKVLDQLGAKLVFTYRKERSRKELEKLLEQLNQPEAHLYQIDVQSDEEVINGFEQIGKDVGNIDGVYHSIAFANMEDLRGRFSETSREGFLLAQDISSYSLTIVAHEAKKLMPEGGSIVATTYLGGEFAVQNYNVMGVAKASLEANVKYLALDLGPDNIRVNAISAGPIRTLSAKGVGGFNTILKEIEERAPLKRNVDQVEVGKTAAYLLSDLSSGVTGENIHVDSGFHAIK

[34] = Cmax in female Sprague-Dawley rat at 20 mg/kg, po measured upto 24 hrs by LC-MS analysis; format: ADME, organism-based; conditions: in vivo

Structure (SMILES)	viability at 48 h, 800 µM [1] [%]	Activity (Cell membrane [2])	half-life at 1 µM [3] [min]	hemolysis at 1 h, 128 ug/ml [4] [%]	Activity [5]	MIC (Pseudomonas aeruginosa) [µg/mL]	Activity [6]	fold change (FC) (Cell membrane [7])	log(activity) (Staphylococcus aureus [8])	solubility at 24 h [9] [µg/mL]	MIC (Staphylococcus aureus [10]) [µg/mL]	Activity [11]	Activity [12]	Activity [13]	MIC (Staphylococcus aureus [14]) [µg/mL]	bioavailability [15] [%]	MIC (Staphylococcus aureus [16]) [µg/mL]	CL/F [17] [mL/min/kg]	Activity [18]	fold change (FC) (Cell membrane [19])	other results
COc1c(Br)cccc1N1CC(c2nc3ccccc3n2C)CC1=O (centres undefined)	> 65	Active	13.2	3.4	Non-Toxic	> 32	Non-Toxic	1.9	2.3	467 (≈ 1170 µM)	1 (≈ 2.5 µM)	Non-Toxic	Non-Toxic	Non-Toxic	1 (≈ 2.5 µM)	34.5	32 (≈ 79.9 µM)	86.7	Non-Toxic	1.8	Activity [20]: Non-Toxic; CLint scaled at 1 µM [21]: 414 mL/min/kg; Activity (Cell membrane [22]): Active; half-life at 1 µM [23]: 38.3 min; fold change (FC) (Cell membrane [24]): 1.4; Tmax [25]: 30 min; MIC (Escherichia coli): > 32 µg/mL; fold change (FC) (Cell membrane [26]): 1.5; Activity (Staphylococcus aureus [27]): Active; Activity [28]: Non-Toxic; concentration at 1 h [29]: 18100 ng/mL; Cmax [30]: 2720 ng/mL; concentration at 1 h [31]: 46500 ng/mL; MIC (Enterococcus faecalis): > 32 µg/mL; Activity [32]: Non-Toxic; IC50 [33]: 0.199 µM; Cmax [34]: 1270 ng/mL
Cc1c(Br)cccc1N1CC(c2nc3ccccc3n2C)CC1=O (centres undefined)	> 75	Active	27.7	5	Non-Toxic	> 32	Non-Toxic	2.1	3.2	388 (≈ 1010 µM)	1 (≈ 2.6 µM)	Non-Toxic	Non-Toxic	Non-Toxic	1 (≈ 2.6 µM)	86.1	32 (≈ 83.3 µM)	26.7	Non-Toxic	1.9	Activity [20]: Non-Toxic; CLint scaled at 1 µM [21]: 197 mL/min/kg; Activity (Cell membrane [22]): Active; half-life at 1 µM [23]: 63.6 min; fold change (FC) (Cell membrane [24]): 1.3; Tmax [25]: 60 min; MIC (Escherichia coli): > 32 µg/mL; fold change (FC) (Cell membrane [26]): 1.6; Activity (Staphylococcus aureus [27]): Active; Activity [28]: Non-Toxic; concentration at 1 h [29]: 24000 ng/mL; Cmax [30]: 3240 ng/mL; concentration at 1 h [31]: 72100 ng/mL; MIC (Enterococcus faecalis): > 32 µg/mL; Activity [32]: Non-Toxic; IC50 [33]: 0.174 µM; Cmax [34]: 1520 ng/mL
